Several values for one entry are separate records, joined by “and”; a condition that tells them apart may be missing. Equal values may be shown once. Toxic doses and inconclusive results are not listed.
Tested on: L1210 leukemia ip in BDF1 mice, survival T/C
Assay: NCI In Vivo Anticancer Drug Screen. Data for tumor model L1210 Leukemia (intraperitoneal) in B6D2F1 (BDF1) mice
Settings: endpoint: mean survival time, higher = longer survival
Method: The antitumor activity of compounds was measured in mice bearing transplantable tumors. Survival or tumor size were measured and the results are expressed as the measurement made in the treated group (T) divided by the measurement made in the vehicle treated control group (C). The tumor model used in this assay is L1210 Leukemia (intraperitoneal) in B6D2F1 (BDF1) mice

[1] = dose: 10.0 mg/kg/injection, schedule: Q01DX001 (ip), vehicle: saline
[2] = dose: 20.0 mg/kg/injection, schedule: Q01DX001 (ip), vehicle: saline
[3] = dose: 40.0 mg/kg/injection, schedule: Q01DX001 (ip), vehicle: saline
[4] = dose: 80.0 mg/kg/injection, schedule: Q01DX001 (ip), vehicle: saline
[5] = dose: 100.0 mg/kg/injection, schedule: Q04DX003 (ip), vehicle: saline with Tween-80
[6] = dose: 100.0 mg/kg/injection, schedule: Q01DX009 (ip), vehicle: Klucel (hydroxypropylcellulose) (HPC)
[7] = dose: 100.0 mg/kg/injection, schedule: Q04DX003 (ip), vehicle: Klucel (hydroxypropylcellulose) (HPC)
[8] = dose: 200.0 mg/kg/injection, schedule: Q01DX009 (ip), vehicle: Klucel (hydroxypropylcellulose) (HPC)
[9] = dose: 200.0 mg/kg/injection, schedule: Q04DX003 (ip), vehicle: Klucel (hydroxypropylcellulose) (HPC)
[10] = dose: 400.0 mg/kg/injection, schedule: Q01DX009 (ip), vehicle: Klucel (hydroxypropylcellulose) (HPC)
[11] = dose: 5.0 mg/kg/injection, schedule: Q01DX001 (ip), vehicle: saline
[12] = dose: 100.0 mg/kg/injection, schedule: Q01DX001 (ip), vehicle: saline
[13] = dose: 200.0 mg/kg/injection, schedule: Q01DX001 (ip), vehicle: saline
[14] = dose: 400.0 mg/kg/injection, schedule: Q04DX003 (ip), vehicle: Klucel (hydroxypropylcellulose) (HPC)
[15] = dose: 75.0 mg/kg/injection, schedule: Q01DX001 (ip), vehicle: saline
[16] = dose: 100.0 mg/kg/injection, schedule: Q04DX003 (ip), vehicle: saline
[17] = dose: 200.0 mg/kg/injection, schedule: Q04DX003 (ip), vehicle: saline
[18] = dose: 400.0 mg/kg/injection, schedule: Q04DX003 (ip), vehicle: saline

SMILES: CC(=O)N(C)c1ccc(NC(=O)Nc2cc([N+](=O)[O-])ccc2C)cc1
- T/C (dose: 100.0 mg/kg/injection, schedule: Q04DX002 (ip), vehicle: Klucel (hydroxypropylcellulose) (HPC)): 106 % of control
- T/C (dose: 200.0 mg/kg/injection, schedule: Q04DX002 (ip), vehicle: Klucel (hydroxypropylcellulose) (HPC)): 108 % of control
- T/C (dose: 400.0 mg/kg/injection, schedule: Q04DX002 (ip), vehicle: Klucel (hydroxypropylcellulose) (HPC)): 101 % of control

SMILES: N=C(N)S/C=C/CSC(=N)N
- T/C [1]: 90 % of control
- T/C [2]: 95 % of control
- T/C [3]: 95 % of control
- T/C [4]: 97 % of control

SMILES: CCc1ccc(C(=O)C2CC2)cc1
- T/C (dose: 100.0 mg/kg/injection, schedule: Q01DX009 (ip), vehicle: saline with Tween-80): 102 % of control
- T/C [5]: 93 % of control
- T/C (dose: 200.0 mg/kg/injection, schedule: Q01DX009 (ip), vehicle: saline with Tween-80): 104 % of control
- T/C (dose: 200.0 mg/kg/injection, schedule: Q04DX003 (ip), vehicle: saline with Tween-80): 96 % of control
- T/C (dose: 400.0 mg/kg/injection, schedule: Q01DX009 (ip), vehicle: saline with Tween-80): 110 % of control
- T/C (dose: 400.0 mg/kg/injection, schedule: Q04DX003 (ip), vehicle: saline with Tween-80): 96 % of control

SMILES: OCC(O)C(O)C(O)C(O)CN=Cc1ccccc1O (stereo not given)
- T/C (dose: 100.0 mg/kg/injection, schedule: Q04DX002 (ip), vehicle: saline with Tween-80): 109 % of control
- T/C (dose: 200.0 mg/kg/injection, schedule: Q04DX002 (ip), vehicle: saline with Tween-80): 95 % of control
- T/C (dose: 400.0 mg/kg/injection, schedule: Q04DX002 (ip), vehicle: saline with Tween-80): 103 % of control

SMILES: NC(=O)C1(N2CCCC2)CCN(Cc2ccccc2)CC1
- T/C (dose: 50.0 mg/kg/injection, schedule: Q01DX009 (ip), vehicle: Klucel (hydroxypropylcellulose) (HPC)): 94 % of control
- T/C [6]: 97 % of control
- T/C [7]: 96 % of control
- T/C [8]: 90 % of control
- T/C [9]: 93 % of control

SMILES: COc1ccc(Cl)cc1NC(=O)Nc1ccc(SC)cc1
- T/C [6]: 98 % of control
- T/C [8]: 94 % of control
- T/C [10]: 96 % of control

SMILES: Nc1ncnc2nc(-c3cccc([N+](=O)[O-])c3)[nH]c12
- T/C (dose: 50.0 mg/kg/injection, schedule: Q01DX001 (ip), vehicle: Klucel (hydroxypropylcellulose) (HPC)): 100 % of control
- T/C (dose: 100.0 mg/kg/injection, schedule: Q01DX001 (ip), vehicle: Klucel (hydroxypropylcellulose) (HPC)): 91 % of control
- T/C (dose: 200.0 mg/kg/injection, schedule: Q01DX001 (ip), vehicle: Klucel (hydroxypropylcellulose) (HPC)): 88 % of control

SMILES: CCN(CC)CCOc1ccc(-c2ccccc2)cc1
- T/C (dose: 50.0 mg/kg/injection, schedule: Q04DX003 (ip), vehicle: saline with Tween-80): 98 % of control
- T/C [5]: 277 % of control

SMILES: O=C(Nc1ccccc1C(=O)N/N=C/c1ccccc1Cl)c1ccccc1Cl
- T/C [6]: 90 % of control
- T/C [8]: 103 % of control
- T/C [10]: 86 % of control

SMILES: CCCCC[As](=O)(O)CCCCC
- T/C [11]: 104 % of control
- T/C [1]: 106 % of control
- T/C [3]: 115 % of control
- T/C [12]: 94 % of control

SMILES: CC(C)(C)C(=O)CC(=O)C(C)(C)C.CC(C)(C)C(=O)CC(=O)C(C)(C)C.CC(C)(C)C(=O)CC(=O)C(C)(C)C.[Co]
- T/C (dose: 100.0 mg/kg/injection, schedule: Q04DX002 (ip), vehicle: gum acacia): 107 % of control
- T/C (dose: 200.0 mg/kg/injection, schedule: Q04DX002 (ip), vehicle: gum acacia): 90 % of control
- T/C (dose: 400.0 mg/kg/injection, schedule: Q04DX002 (ip), vehicle: gum acacia): 93 % of control

SMILES: OCc1ccccc1NCc1ccccc1
- T/C [6]: 103 % of control
- T/C (dose: 100.0 mg/kg/injection, schedule: Q04DX003 (ip), vehicle: other): 105 % of control
- T/C [8]: 91 % of control
- T/C (dose: 200.0 mg/kg/injection, schedule: Q04DX003 (ip), vehicle: other): 100 % of control
- T/C [10]: 99 % of control
- T/C (dose: 400.0 mg/kg/injection, schedule: Q04DX003 (ip), vehicle: other): 97 % of control

SMILES: OC1COC(n2cnc3c(=S)nc[nH]c32)C(O)C1O (stereo not given)
- T/C [11]: 98 % of control
- T/C [1]: 102 % of control
- T/C [2]: 98 % of control
- T/C [3]: 96 % of control
- T/C (dose: 50.0 mg/kg/injection, schedule: Q01DX001 (ip), vehicle: saline): 115 % of control
- T/C [4]: 98 % of control
- T/C [12]: 105 % of control and 100 % of control
- T/C [13]: 111 % of control and 100 % of control and 101 % of control
- T/C (dose: 400.0 mg/kg/injection, schedule: Q01DX001 (ip), vehicle: saline): 101 % of control and 103 % of control

SMILES: c1ccc([C@H]2N[C@H]2c2ccccc2)cc1
- T/C [7]: 96 % of control
- T/C [9]: 95 % of control
- T/C [14]: 98 % of control

SMILES: COc1ccc(C=O)cc1Br
- T/C [7]: 102 % of control
- T/C [9]: 97 % of control
- T/C [14]: 95 % of control

SMILES: CCN(CC)CCCC(C)Nc1cc(N)nc2nc(-c3ccccc3)cnc12 (stereo not given) (tested in a mixture with another compound)
- T/C [15]: 86 % of control and 91 % of control
- T/C (dose: 150.0 mg/kg/injection, schedule: Q01DX001 (ip), vehicle: saline): 97 % of control

SMILES: CC1(C)N=C(N)N=C(N)N1c1ccc(CCCCc2ccccc2Cl)cc1
- T/C (dose: 12.5 mg/kg/injection, schedule: Q01DX001 (ip), vehicle: Klucel (hydroxypropylcellulose) (HPC)): 95 % of control
- T/C (dose: 25.0 mg/kg/injection, schedule: Q01DX001 (ip), vehicle: Klucel (hydroxypropylcellulose) (HPC)): 98 % of control

SMILES: O=C(CN(CCO)CCO)c1ccc([N+](=O)[O-])cc1
- T/C [15]: 101 % of control

SMILES: Cc1cc[n+](CCC(N)=O)cc1
- T/C (dose: 100.0 mg/kg/injection, schedule: Q01DX009 (ip), vehicle: saline): 95 % of control
- T/C [16]: 93 % of control
- T/C (dose: 200.0 mg/kg/injection, schedule: Q01DX009 (ip), vehicle: saline): 93 % of control
- T/C [17]: 98 % of control
- T/C (dose: 400.0 mg/kg/injection, schedule: Q01DX009 (ip), vehicle: saline): 93 % of control
- T/C [18]: 102 % of control

SMILES: O=C(OCCCCCOC(=O)c1cccc([N+](=O)[O-])c1)c1cccc([N+](=O)[O-])c1
- T/C (dose: 100.0 mg/kg/injection, schedule: Q01DX001 (ip), vehicle: other): 93 % of control
- T/C (dose: 200.0 mg/kg/injection, schedule: Q01DX001 (ip), vehicle: other): 96 % of control
- T/C (dose: 400.0 mg/kg/injection, schedule: Q01DX001 (ip), vehicle: other): 95 % of control

SMILES: CCCCNC(=O)CCl
- T/C [12]: 96 % of control
- T/C [13]: 113 % of control

SMILES: CC(=O)OC1C=CCC2C(=O)C34CC=CC(OC(C)=O)C3(C(=O)c3ccccc3C4=O)C(=O)C12 (stereo not given)
- T/C (dose: 0.25 mg/kg/injection, schedule: Q04DX003 (ip), vehicle: water): 97 % of control
- T/C (dose: 0.5 mg/kg/injection, schedule: Q04DX003 (ip), vehicle: water): 102 % of control
- T/C (dose: 1.0 mg/kg/injection, schedule: Q04DX003 (ip), vehicle: water): 95 % of control
- T/C (dose: 2.0 mg/kg/injection, schedule: Q04DX003 (ip), vehicle: water): 98 % of control
- T/C (dose: 4.0 mg/kg/injection, schedule: Q04DX003 (ip), vehicle: water): 102 % of control
- T/C (dose: 8.0 mg/kg/injection, schedule: Q04DX003 (ip), vehicle: water): 107 % of control
- T/C (dose: 16.0 mg/kg/injection, schedule: Q04DX003 (ip), vehicle: saline): 96 % of control
- T/C (dose: 16.0 mg/kg/injection, schedule: Q04DX003 (ip), vehicle: water): 92 % of control
- T/C (dose: 32.0 mg/kg/injection, schedule: Q04DX003 (ip), vehicle: saline): 98 % of control
- T/C (dose: 64.0 mg/kg/injection, schedule: Q04DX003 (ip), vehicle: saline): 102 % of control

SMILES: CC1(C)CN=C(c2cccc([N+](=O)[O-])c2)O1
- T/C [6]: 98 % of control
- T/C [8]: 105 % of control
- T/C [10]: 100 % of control

SMILES: COC(=O)c1c(OC)cc(OC)cc1OC
- T/C (dose: 100.0 mg/kg/injection, schedule: Q01DX009 (ip), vehicle: other): 96 % of control
- T/C [16]: 100 % of control
- T/C (dose: 200.0 mg/kg/injection, schedule: Q01DX009 (ip), vehicle: other): 96 % of control
- T/C [17]: 97 % of control
- T/C (dose: 400.0 mg/kg/injection, schedule: Q01DX009 (ip), vehicle: other): 94 % of control
- T/C [18]: 95 % of control

From PubChem BioAssay AID248 (DTP/NCI, 2004)
